Where two headings read alike, the source gives them in different places.
Key:
LPAR1 receptor = molecular target: T1, LPAR1 receptor (Homo sapiens, UniProt Q92633); assay: LPAR1 in vitro biological activity evaluation 2: HTRF cAMP kit (LANCE Ultra cAMP Kit) assay in CHO stable transfected cell line expressing the LPAR1 receptor; type: cell-based; conditions: Table 2, read-out: LPAR1 inhibitory activity IC50
T1 construct: expressed in transfected cells
Protocol: The inhibitory effects of the compounds of the present disclosure on the LPAR1 receptor were determined using a Chinese hamster ovary (CHO) stable transfected cell line expressing the LPAR1 receptor, through the HTRF cAMP kit (LANCE® Ultra cAMP Kit).
The CHO cell line expressing the LPAR1 receptor was cultured in F-12 medium (Gibco, 117650054) containing 10% fetal bovine serum (FBS, Avantor, 76294-180) and 0.2 mg/mL hygromycin B (Solarbio, H8080-1g) at 37°C with 5% CO2. Cell passage, recovery, and cryopreservation were performed according to conventional methods. The stable transfected cell line was cultured to 80% confluence, digested with trypsin to collect cells, counted, and then seeded at 5 µL/well in a 384-well plate (500 cells/5 µL). The 1× Stimulation Buffer was prepared according to the instructions of the kit (LANCE® Ultra cAMP Kit). 1 µL of the test compound solution (diluted to 10× with 1× Stimulation Buffer) was added to the corresponding experimental wells, followed by centrifugation and incubation at 37°C for 10 minutes. […] 5 µL/well of Eu-cAMP (diluted with Detection buffer) was added to the corresponding experimental wells. 5 µL/well of ULight™-anti-cAMP antibody (diluted with Detection buffer) was added to the corresponding experimental wells, followed by centrifugation and incubation at room temperature for 1 hour. After the incubation was completed, the readings at 665 nm and 620 nm under 330 nm excitation were detected using the HTS high-throughput drug screening multifunctional microplate reader (BMG, PHERAstar FSX). The IC50 values were calculated by fitting nonlinear regression (dose response - variable slope) using GraphPad Prism software.

[1] = molecular target: hLPAR1 (human lysophosphatidic acid receptor 1, Accession No.: NM_001401.4) (Homo sapiens, UniProt Q92633); assay: cell-based; conditions: FLIPR method, CHO-K1 cells overexpressing hLPAR1
Chain of hLPAR1 (human lysophosphatidic acid receptor 1, Accession No.: NM_001401.4) (Q92633 whole entry): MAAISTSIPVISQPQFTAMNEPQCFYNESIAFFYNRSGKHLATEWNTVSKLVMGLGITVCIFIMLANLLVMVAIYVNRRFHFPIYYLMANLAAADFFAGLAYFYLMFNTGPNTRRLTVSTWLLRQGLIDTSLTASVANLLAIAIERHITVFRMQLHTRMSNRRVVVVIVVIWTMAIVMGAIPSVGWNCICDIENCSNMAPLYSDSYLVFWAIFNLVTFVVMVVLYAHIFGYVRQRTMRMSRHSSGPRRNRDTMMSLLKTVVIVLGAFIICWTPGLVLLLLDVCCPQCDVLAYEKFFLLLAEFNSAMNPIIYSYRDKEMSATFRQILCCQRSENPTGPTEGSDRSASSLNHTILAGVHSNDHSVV
Procedure, shortened: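 Antagonist mode in CHO-K1 cells stably expressing hLPAR1, Fluo-4 loaded; compound preincubated 30 min at room temperature before 1 µM oleoyl-LPA (final) challenge.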

[2] = Pharmacokinetic study in rats (oral gavage and tail vein injection, plasma LC-MS/MS); type: in vivo; conditions: rat; for Cmax: read-out: Cmax
Protocol: Male SPF-grade SD rats (Beijing Vital River Laboratory Animal Technology Co., Ltd.) with a body weight range of 200 to 250 g were used. After acclimatization, the rats were administered a clear solution of the compound of the present disclosure via oral gavage (Po, fasted overnight before administration with free access to water, food returned 4 hours after administration) and tail vein injection (Iv, free access to food and water throughout the administration). Blood samples were collected from the orbital venous plexus/jugular vein of rats at specified time points after administration (blood collection time points for the PO group: 0.167, 0.5, 1, 2, 4, 6, 8, and 24 h; for the IV group: 0.033, 0.167, 1, 2, 4, 6, 8, and 24 h). The concentration of compounds in plasma was detected by LC-MS/MS (AB SCIEX Qtrap4500). Data were analyzed using WinNonlin (version 5.2.1 Pharsight, Mountain View, CA) with a non-compartmental model to obtain PK parameters (including Cmax, C0, Tmax, AUClast, AUCinf, T1/2, etc.).
Table 3: Results of in vivo pharmacokinetic studies of compounds of the present disclosure in rats
The vehicle for the Po group compound was 5% DMSO + 5% ethanol + 60% PEG400 + 30% normal saline; the vehicle for the Iv group compound was 10% ethanol + 20% pure water + 70% PEG400 solution.

[3] = Table 1, read-out: LPAR1 inhibitory activity IC50

T1 sequence (Q92633 whole entry): as above

CCc1nc(-c2nnn(C)c2NC(=O)O[C@H](C)C(F)(F)CC)ccc1C#CC1(CC(=O)O)CC1 [compound 233]
IC50 (LPAR1 receptor): 163 nM

Cc1nc(-c2nnn(C)c2NC(=O)O[C@H](C)CC2CC2)ccc1C#C[C@@H]1CC[C@H]1C(=O)O [compound 248]
IC50 (LPAR1 receptor): 72.2 nM

Cc1nc(-c2nnn(C)c2CNC(=O)OCCC(C)C)ccc1C#CC1(CC(=O)O)CC1 [compound 253]
IC50 [1, 3]: 72.3 nM
half-life ([2]; male, SD, iv, 1 mg/kg): 4.06 h
half-life ([2]; male, SD, po, 3 mg/kg): 3.45 h
AUC(0-t) ([2]; male, SD rats, Iv, 1 mg/kg): 1200 to 3000 ng·h/mL
Cmax ([2]; male, SD rats, Iv, 1 mg/kg): 5000 to 8000 ng/mL
AUC(0-t) ([2]; male, SD rats, Po, 3 mg/kg): 5000 to 10000 ng·h/mL
Cmax ([2]; male, SD rats, Po, 3 mg/kg): 800 to 5000 ng/mL

Cc1nc(-c2nnn(C)c2CNc2nccc(C3CC(F)(F)C3)n2)ccc1C#CC1(CC(=O)O)CC1 [compound 254]
IC50 [1, 3]: 63.9 nM
half-life ([2]; male, SD, iv, 1 mg/kg): 7.04 h
half-life ([2]; male, SD, po, 1 mg/kg): 5.13 h
AUC(0-t) ([2]; male, SD rats, Iv, 1 mg/kg): 3000 to 5000 ng·h/mL
Cmax ([2]; male, SD rats, Iv, 1 mg/kg): 5000 to 8000 ng/mL
AUC(0-t) ([2]; male, SD rats, Po, 1 mg/kg): 3000 to 5000 ng·h/mL
Cmax ([2]; male, SD rats, Po, 1 mg/kg): 200 to 800 ng/mL

Cc1nc(-c2nnn(C)c2NC(=O)O[C@H](C)CC(C)(C)F)ccc1C#CC1(CC(=O)O)CC1 [compound 263]
IC50 ([1]; LPAR1 inhibitory activity IC50, Table 1): 52.8 nM
AUC(0-t) ([2]; SD rats, Iv, 1 mg/kg): 3000 to 5000 ng·h/mL
half-life ([2]; SD rats, Iv, 1 mg/kg): 13.8 h
Cmax ([2]; SD rats, Iv, 1 mg/kg): 800 to 5000 ng/mL
AUC(0-t) ([2]; SD rats, Po, 1 mg/kg): 5000 to 10000 ng·h/mL
half-life ([2]; SD rats, Po, 1 mg/kg): 10.2 h
Cmax ([2]; SD rats, Po, 1 mg/kg): 200 to 800 ng/mL

Cc1nc(-c2nnn(C)c2NC(=O)O[C@H](C)C(F)(F)C(C)C)ccc1C#CC1(CC(=O)O)CC1 [compound 265]
IC50 [1, 3]: 21.5 nM
half-life ([2]; male, SD, iv, 0.63 mg/kg): 7.81 h
half-life ([2]; male, SD, po, 1 mg/kg): 8.5 h
AUC(0-t) ([2]; male, SD rats, Iv, 0.63 mg/kg): 1200 to 3000 ng·h/mL
Cmax ([2]; male, SD rats, Iv, 0.63 mg/kg): 800 to 5000 ng/mL
AUC(0-t) ([2]; male, SD rats, Po, 1 mg/kg): 3000 to 5000 ng·h/mL
Cmax ([2]; male, SD rats, Po, 1 mg/kg): 200 to 800 ng/mL

CCC(F)(F)[C@@H](C)OC(=O)Nc1c(C)noc1-c1ccc(C#CC2(CC(=O)O)CC2)c(C)n1 [compound 277]
IC50 (LPAR1 receptor): 26.6 nM

Cc1nc(-c2nnn(C)c2NC(=O)O[C@H](C)CC(C)C)ccc1C#C[C@@H]1C[C@H]1C(=O)O [compound 290]
IC50 (LPAR1 receptor): 190 nM

Cc1nc(-c2nnn(C)c2NC(=O)OC(C)C23CC(C2)C3)ccc1C#C[C@@H]1C[C@H]1C(=O)O (stereo partly shown) [compound 294]
IC50 (LPAR1 receptor): 195 nM

Cc1nc(-c2nnn(C)c2NC(=O)OC(C)C23CC(C2)C3)ccc1C#C[C@@H]1CC[C@H]1C(=O)O (stereo partly shown) [compound 296]
IC50 (LPAR1 receptor): 83.8 nM

Cc1nc(-c2nnn(C)c2NC(=O)O[C@H](C)CC(C)C)ccc1C#C[C@@H]1CC(F)(F)C[C@H]1C(=O)O [compound 299]
IC50 (LPAR1 receptor): 13.6 nM

CCC[C@@H](C)OC(=O)Nc1c(-c2ccc(C#C[C@@H]3CC(F)(F)C[C@H]3C(=O)O)c(C)n2)nnn1C [compound 304]
IC50 (LPAR1 receptor): 134 nM

CCC[C@@H](C)OC(=O)Nc1c(-c2ccc(C#C[C@@H]3CCC[C@H]3C(=O)O)c(C)n2)nnn1C [compound 305]
IC50 (LPAR1 receptor): 91.2 nM

CCC(F)(F)[C@@H](C)OC(=O)Nc1c(-c2ccc(C#CC3(CC(=O)O)CCC3)c(C)n2)nnn1C [compound 323]
IC50 (LPAR1 receptor): 14.8 nM

Cc1nc(-c2nnn(C)c2NC(=O)O[C@H](C)CC(C)(F)F)ccc1C#CC1(CC(=O)O)CCC1 [compound 324]
IC50 [1, 3]: 50.3 nM
half-life ([2]; male, SD, iv, 1 mg/kg): 12.1 h
half-life ([2]; male, SD, po, 1 mg/kg): 5.73 h
AUC(0-t) ([2]; male, SD rats, Iv, 1 mg/kg): 3000 to 5000 ng·h/mL
Cmax ([2]; male, SD rats, Iv, 1 mg/kg): 800 to 5000 ng/mL
AUC(0-t) ([2]; male, SD rats, Po, 1 mg/kg): 5000 to 10000 ng·h/mL
Cmax ([2]; male, SD rats, Po, 1 mg/kg): 800 to 5000 ng/mL

Cc1nc(-c2noc(C)c2NC(=O)O[C@H](C)CC(C)(F)F)ccc1C#CC1(CC(=O)O)CC1 [compound 334]
IC50 (LPAR1 receptor): 107 nM
